From article PMC9940446 (Bioorganic & medicinal chemistry letters, 2022)

What was measured:
[1] = biological target: MDM2; details: read-out: binding affinity towards MDM2 (Kd); ref 22 (Thean et al.); cited from earlier work
[2] = Tumor uptake and tissue distribution in mice bearing SJSA-1 xenografts; type: in vivo, athymic mice; details: athymic, mouse, iv, 166.5 kBq, total radioactivity
[3] = In vivo metabolic stability; details: athymic mice without tumors, i.v., plasma 4 h post-injection; RP-HPLC; n = 2/time point
[4] = Lipophilicity, shake-flask n-octanol/PBS; type: physicochemical; details: n-octanol/phosphate-buffered saline, pH 7.4
[5] = test system: SJSA-1 osteosarcoma cell line (MDM2-amplified, wild-type p53); type: cell-based, human; details: SJSA-1 cells, 50 μM VIP116, 2 h incubation
[6] = test system: SJSA-1 human osteosarcoma xenografts; assay: Tumor uptake and tissue distribution in mice bearing SJSA-1 xenografts; type: in vivo, athymic mice

CC(=O)N[C@@H](CCCCN)C(=O)NCCCCCC(=O)N[C@H](C(=O)N[C@@H](CO)C(=O)N[C@@H](Cc1ccccc1)C(=O)N[C@]1(C)CCCCCCC=CCCC[C@@](C)(C(=O)N[C@@H](CCC(=O)O)C(=O)N[C@@H](CC(N)=O)C(=O)N[C@@H](Cc2ccccc2)C(N)=O)NC(=O)[C@H](CC(C)C)NC(=O)[C@H](CC(C)C)NC(=O)[C@H](C)NC(=O)[C@H](Cc2c[nH]c3ccccc23)NC(=O)[C@H](Cc2ccc(O)cc2)NC(=O)[C@H](CCC(=O)O)NC1=O)[C@@H](C)O [VIP116]
Kd [1]: 15.1 ± 1.7 nM

CC(=O)N[C@@H](CCCCNC(=O)c1cccc(I)c1)C(=O)NCCCCCC(=O)N[C@H](C(=O)N[C@@H](CO)C(=O)N[C@@H](Cc1ccccc1)C(=O)N[C@]1(C)CCCCCCC=CCCC[C@@](C)(C(=O)N[C@@H](CCC(=O)O)C(=O)N[C@@H](CC(N)=O)C(=O)N[C@@H](Cc2ccccc2)C(N)=O)NC(=O)[C@H](CC(C)C)NC(=O)[C@H](CC(C)C)NC(=O)[C@H](C)NC(=O)[C@H](Cc2c[nH]c3ccccc23)NC(=O)[C@H](Cc2ccc(O)cc2)NC(=O)[C@H](CCC(=O)O)NC1=O)[C@@H](C)O [[*I]SIB-VIP116] [listing 1 of 2 here]
tissue uptake at 0.5 h ([2]; blood): 8.33 ± 1.18 %ID/g | tissue uptake at 2 h ([2]; tumor): 2.19 ± 0.56 %ID/g

CC(=O)N[C@@H](CCCCNC(=O)c1cccc(I)c1)C(=O)NCCCCCC(=O)N[C@H](C(=O)N[C@@H](CO)C(=O)N[C@@H](Cc1ccccc1)C(=O)N[C@]1(C)CCCCCCC=CCCC[C@@](C)(C(=O)N[C@@H](CCC(=O)O)C(=O)N[C@@H](CC(N)=O)C(=O)N[C@@H](Cc2ccccc2)C(N)=O)NC(=O)[C@H](CC(C)C)NC(=O)[C@H](CC(C)C)NC(=O)[C@H](C)NC(=O)[C@H](Cc2c[nH]c3ccccc23)NC(=O)[C@H](Cc2ccc(O)cc2)NC(=O)[C@H](CCC(=O)O)NC1=O)[C@@H](C)O [[*I]SIB-VIP116] [listing 2 of 2 here]
% of radioactivity in plasma as intact labeled peptide [3]: about 80%

CC(=O)N[C@@H](CCCCNC(=O)c1cccc(I)c1)C(=O)NCCCCCC(=O)N[C@H](C(=O)N[C@@H](CO)C(=O)N[C@@H](Cc1ccccc1)C(=O)N[C@]1(C)CCCCCCC=CCCC[C@@](C)(C(=O)N[C@@H](CCC(=O)O)C(=O)N[C@@H](CC(N)=O)C(=O)N[C@@H](Cc2ccccc2)C(N)=O)NC(=O)[C@H](CC(C)C)NC(=O)[C@H](CC(C)C)NC(=O)[C@H](C)NC(=O)[C@H](Cc2c[nH]c3ccccc23)NC(=O)[C@H](Cc2ccc(O)cc2)NC(=O)[C@H](CCC(=O)O)NC1=O)[C@@H](C)O [[^125I]SIB-VIP116] [listing 1 of 2 here]
logD [4]: 1.45 ± 0.05 | tissue uptake at 0.5 h ([2]; bladder): 0.61 ± 0.21 %ID/g | tissue uptake at 2 h ([2]; bladder): 0.58 ± 0.34 %ID/g | tissue uptake at 6 h ([2]; bladder): 0.95 ± 0.78 %ID/g | tissue uptake at 24 h ([2]; bladder): 0.29 ± 0.09 %ID/g | tissue uptake at 2 h ([2]; blood): 6.84 ± 1.92 %ID/g | tissue uptake at 6 h ([2]; blood): 5.12 ± 0.9 %ID/g | tissue uptake at 24 h ([2]; blood): 0.62 ± 0.2 %ID/g | tissue uptake at 0.5 h ([2]; bone): 0.38 ± 0.19 %ID/g | tissue uptake at 2 h ([2]; bone): 0.33 ± 0.23 %ID/g | tissue uptake at 6 h ([2]; bone): 0.29 ± 0.2 %ID/g | tissue uptake at 24 h ([2]; bone): 0.16 ± 0.04 %ID/g | tissue uptake at 0.5 h ([2]; brain): 0.24 ± 0.13 %ID/g | tissue uptake at 2 h ([2]; brain): 0.25 ± 0.08 %ID/g | tissue uptake at 6 h ([2]; brain): 0.2 ± 0.06 %ID/g | tissue uptake at 24 h ([2]; brain): 0.02 ± 0.01 %ID/g | tissue uptake at 0.5 h ([2]; heart): 2.52 ± 0.49 %ID/g | tissue uptake at 2 h ([2]; heart): 2.44 ± 0.49 %ID/g | tissue uptake at 6 h ([2]; heart): 2.14 ± 0.38 %ID/g | tissue uptake at 24 h ([2]; heart): 0.37 ± 0.08 %ID/g | tissue uptake at 0.5 h ([2]; kidneys): 3.06 ± 1.82 %ID/g | tissue uptake at 2 h ([2]; kidneys): 2.54 ± 0.5 %ID/g | tissue uptake at 6 h ([2]; kidneys): 2.5 ± 0.48 %ID/g | tissue uptake at 24 h ([2]; kidneys): 0.63 ± 0.12 %ID/g | tissue uptake at 0.5 h ([2]; large intestine): 0.06 ± 0.06 %ID/g | tissue uptake at 2 h ([2]; large intestine): 0.24 ± 0.2 %ID/g | tissue uptake at 6 h ([2]; large intestine): 4.44 ± 1.9 %ID/g | tissue uptake at 24 h ([2]; large intestine): 1.87 ± 1.29 %ID/g | tissue uptake at 0.5 h ([2]; liver): 13.5 ± 6.18 %ID/g | tissue uptake at 2 h ([2]; liver): 18.4 ± 1.45 %ID/g | tissue uptake at 6 h ([2]; liver): 11.4 ± 4.46 %ID/g | tissue uptake at 24 h ([2]; liver): 4.72 ± 2.84 %ID/g | tissue uptake at 0.5 h ([2]; lungs): 4.27 ± 1.06 %ID/g | tissue uptake at 2 h ([2]; lungs): 2.72 ± 1.16 %ID/g | tissue uptake at 6 h ([2]; lungs): 2.49 ± 1.17 %ID/g | tissue uptake at 24 h ([2]; lungs): 0.33 ± 0.19 %ID/g | tissue uptake at 0.5 h ([2]; muscle): 0.16 ± 0.06 %ID/g | tissue uptake at 2 h ([2]; muscle): 0.24 ± 0.07 %ID/g | tissue uptake at 6 h ([2]; muscle): 0.25 ± 0.11 %ID/g | tissue uptake at 24 h ([2]; muscle): 0.16 ± 0.09 %ID/g | tissue uptake at 0.5 h ([2]; skin): 0.57 ± 0.17 %ID/g | tissue uptake at 2 h ([2]; skin): 0.88 ± 0.18 %ID/g | tissue uptake at 6 h ([2]; skin): 1.22 ± 0.47 %ID/g | tissue uptake at 24 h ([2]; skin): 0.52 ± 0.13 %ID/g | tissue uptake at 0.5 h ([2]; small intestine): 0.43 ± 0.09 %ID/g | tissue uptake at 2 h ([2]; small intestine): 2.17 ± 0.99 %ID/g | tissue uptake at 6 h ([2]; small intestine): 3.84 ± 1.29 %ID/g | tissue uptake at 24 h ([2]; small intestine): 0.86 ± 0.35 %ID/g | tissue uptake at 0.5 h ([2]; spleen): 1.29 ± 0.61 %ID/g | tissue uptake at 2 h ([2]; spleen): 1.8 ± 0.65 %ID/g | tissue uptake at 6 h ([2]; spleen): 1.99 ± 0.44 %ID/g | tissue uptake at 24 h ([2]; spleen): 0.58 ± 0.24 %ID/g | tissue uptake at 0.5 h ([2]; stomach): 0.34 ± 0.09 %ID/g | tissue uptake at 2 h ([2]; stomach): 0.53 ± 0.17 %ID/g | tissue uptake at 6 h ([2]; stomach): 1.9 ± 1.15 %ID/g | tissue uptake at 24 h ([2]; stomach): 0.84 ± 0.43 %ID/g | tissue uptake at 0.5 h ([2]; thyroid): 0.89 ± 0.17 %ID/g | tissue uptake at 2 h ([2]; thyroid): 1.14 ± 0.43 %ID/g | tissue uptake at 6 h ([2]; thyroid): 1.19 ± 0.36 %ID/g | tissue uptake at 24 h ([2]; thyroid): 0.27 ± 0.14 %ID/g | tissue uptake at 0.5 h ([2]; tumor): 1.8 ± 0.75 %ID/g | tissue uptake at 6 h ([2]; tumor): 2.11 ± 0.29 %ID/g | tissue uptake at 24 h ([2]; tumor): 0.36 ± 0.12 %ID/g

CC(=O)N[C@@H](CCCCNC(=O)c1cccc(I)c1)C(=O)NCCCCCC(=O)N[C@H](C(=O)N[C@@H](CO)C(=O)N[C@@H](Cc1ccccc1)C(=O)N[C@]1(C)CCCCCCC=CCCC[C@@](C)(C(=O)N[C@@H](CCC(=O)O)C(=O)N[C@@H](CC(N)=O)C(=O)N[C@@H](Cc2ccccc2)C(N)=O)NC(=O)[C@H](CC(C)C)NC(=O)[C@H](CC(C)C)NC(=O)[C@H](C)NC(=O)[C@H](Cc2c[nH]c3ccccc23)NC(=O)[C@H](Cc2ccc(O)cc2)NC(=O)[C@H](CCC(=O)O)NC1=O)[C@@H](C)O [[^125I]SIB-VIP116] [listing 2 of 2 here]
blocking of cell uptake [5]: > 85% | Blood radioactivity ([6]; 30 min after i.v. injection, n = 5): 8.33 ± 1.18 %ID/g | radioactivity found in the urine ([6]; 2 h after i.v. injection (data not shown)): ≤ 0.93 % ID | Tumor uptake (SJSA-1 xenograft) ([6]; 2 h after i.v. injection, n = 5): 2.19 ± 0.56 %ID/g
